# Data: patent US20140228287A1, “1-[(3-CYANO-PYRIDIN-2-YL)METHYL]-3-METHYL-7-(2-BUTYN-1-YL)-8-[3-(R)-AMINO-PIPERIDIN-1-YL]-AXANTHINE FOR THE TREATMENT OF A METABOLIC DISORDER OF A PREDOMINANTLY CARNIVOROUS NON-HUMAN ANIMAL” (BOEHRINGER INGELHEIM VETMEDICA GMBH, priority 2010, published 2014)
# Entries after “also recorded” stand apart in the source; their conditions may differ. Where a name gives a salt, the structure may show the parent alone. Read-outs that look alike come from different tables or passages of the source.
# How the values were obtained:
# [1] = Exploratory single dose PK/PD (1.0/5.0/10.0 mg/kg) in cats: pharmacokinetics; assay type: in vivo; settings: cat; for AUC(0-inf) / Cmax / MRT / Tmax / half-life: male, domestic short hair, plasma, free base by LC-MS/MS; for half-life: read-out: T1/2, mean (converted)
# Method: The aim of this study was to investigate the PK/PD behaviour of 1-[(3-cyano-pyridin-2-yl)methyl]-3-methyl-7-(2-butyn-1-yl)-8-[3-(R)-amino-piperidin-1-yl]-xanthine in the cat following a single oral administration of 0, 1, 5 and 10 mg/kg body weight (dosages were based on the free base: 1 mg 1-[(3-cyano-pyridin-2-yl)methyl]-3-methyl-7-(2-butyn-1-yl)-8-[3-(R)-amino-piperidin-1-yl]-xanthine monohydrochloride corresponds to 0.923 mg 1-[(3-cyano-pyridin-2-yl)methyl]-3-methyl-7-(2-butyn-1-yl)-8-[3-(R)-amino-piperidin-1-yl]-xanthine free base).
# Twelve clinically healthy male adult domestic short hair cats with a body weight range of 3.5-4.7 kg were used in this study. All animals were treated orally once via a stomach tube. Blood samples for pharmacokinetic and pharmacodynamic (DPP IV activity) investigations were drawn at 0 h (i.e. prior to treatment), 30 min as well as 1, 2, 4, 8, 8.5, 9, 12, 24, 36, 48, 72, 84 and 96 h after treatment. Blood samples for pharmacodynamic (glucagon-like peptide 1 concentrations) investigations were drawn at −16 (i.e. prior to feeding), −15.5, −15 h as well as at 8 h (i.e. prior to feeding), 8.5 and 9 h after treatment.
# PK data for 1-[(3-cyano-pyridin-2-yl)methyl]-3-methyl-7-(2-butyn-1-yl)-8-[3-(R)-amino-piperidin-1-yl]-xanthine free base were determined with a validated LC-MS/MS method and are summarized in Table 6.
# [2] = 60-Day tolerability study of tablets in cats: adverse effects; assay type: in vivo; settings: 20 and 40 mg daily oral tablets for 60 days, monohydrochloride
# Method: This study was conducted in order to examine the long-term tolerability of a pharmaceutical composition comprising 1-[(3-cyano-pyridin-2-yl)methyl]-3-methyl-7-(2-butyn-1-yl)-8-[3-(R)-amino-piperidin-1-yl]-xanthine monohydrochloride in cats after repeated oral administration for 60-days.
# For this purpose, the compound according to the invention has been admixed with standard ingredients to a scored, oblong, brown tablet, size 10×5.5 mm, comprising 1-[(3-cyano-pyridin-2-yl)methyl]-3-methyl-7-(2-butyn-1-yl)-8-[3-(R)-amino-piperidin-1-yl]-xanthine monohydrochloride at 21.68 mg of the chloride per tablet (which equals 20 mg of the free base) and 10% meat flavour.
# 20 male healthy non-obese cats (Domestic short hair feline) supplied by Liberty Research, Inc., Waverly, N.Y., USA, of an age of 13 to 20 months were used. After an adaptation period of 4 weeks, they were separated into three groups: group 1 (6 members, no. 1 to 6) for placebo treatment, group 2 (7 members, no. 7 to 13) for treatment with 20 mg/cat, group 3 (7 members, no. 14 to 20) for treatment with 40 mg/cat. They were treated once daily in the morning, orally with the respective tablet(s) for 60 days. All animals had fasted over night and were fed 4 hours after the administration. Drinking water was offered ad libitum. […]
compound,measurement,setting,value
CC#CCn1c(N2CCC[C@@H](N)C2)nc2c1c(=O)n(Cc1ncccc1C#N)c(=O)n2C [1-[(3-cyano-pyridin-2-yl)methyl]-3-methyl-7-(2-butyn-1-yl)-8-[3-(R)-amino-piperidin-1-yl]-xanthine monohydrochloride],half live,"[1]; single oral 1.0, 5.0, 10.0 mg/kg",over 25 hours
same,AUC(0-inf),[1]; 1.0 mg/kg single oral,1.14 µM·h
same,Cmax,[1]; 1.0 mg/kg single oral,175 nM
same,MRT,[1]; 1.0 mg/kg single oral,12.3 h
same,Tmax,[1]; 1.0 mg/kg single oral,1.33 h
same,half-life,[1]; 1.0 mg/kg single oral,25.4 h
same,AUC(0-inf),[1]; 5.0 mg/kg single oral,5.48 µM·h
same,Cmax,[1]; 5.0 mg/kg single oral,931 nM
same,MRT,[1]; 5.0 mg/kg single oral,6.76 h
same,Tmax,[1]; 5.0 mg/kg single oral,1.83 h
same,half-life,[1]; 5.0 mg/kg single oral,28.8 h
same,AUC(0-inf),[1]; 10 mg/kg single oral,26.3 µM·h
same,Cmax,[1]; 10 mg/kg single oral,5470 nM
same,MRT,[1]; 10 mg/kg single oral,5.73 h
same,Tmax,[1]; 10 mg/kg single oral,1.33 h
same,half-life,[1]; 10 mg/kg single oral,37.6 h
same,adverse effects / tolerability,[2],Adverse effects were not detected; also recorded: well tolerated
